Laboratory results reported in US11944614B2, “Imidazo[4,5-c]pyridine compounds as LSD-1 inhibitors” (THE REGENTS OF THE UNIVERSITY OF MICHIGAN, priority 2018, dated 2024).

Biological target: Human recombinant LSD1 protein (Homo sapiens (Human), UniProt O60341)
Assay: LSD1 enzymatic activity, AlphaLISA demethylation assay
Format: biochemical
Conditions: 4 nM LSD1, 80 nM Biotin-H3K4Me peptide substrate, 1% DMSO, 60 minutes reaction
Experimental: Human recombinant LSD1 protein expressed in E. coli cells was purchased from Active Motif (Carlsbad, Calif.). Biotin-labeled Histone H3K4Me peptide (residues 1-21 with Lys 4 monomethylated) substrate was purchased from Anaspec (Fremont, Calif.). Enzymatic activity was assessed using the AlphaLISA technology from Perkin Elmer Life Sciences (Waltham, Mass.). 2.5 μL of compound solution and 5 μL of LSD1 solutions in the assay buffer (50 mM Tris, pH 9.0, 50 mM NaCl with 0.01% Tween20 and 1 mM DTT added right before the assay) were added into a white low volume 384 well microtiter plate. This mixture solution was incubated for 15 minutes with gentle shaking at room temperature. Demethylation reaction was initiated by adding 2.5 μL of Biotin-H3K4Me peptide substrate solution in the assay buffer. Final concentrations of LSD1, Biotin-H3K4Me peptide substrate, and DMSO were 4 nM, 80 nM, and 1%, respectively. The reaction was allowed to proceed for 60 minutes in dark with gentle shaking at room temperature, after which 5 μL of Anti-H3K4 AlphaLISA acceptor beads in detection buffer from the manufacturer was added into the reaction mixture followed by incubation for 60 minutes. 10 μL of Streptavidin labeled AlphaLISA donor beads in detection buffer was added into the mixture followed by 30-minute incubation. Final acceptor and donor beads concentrations were both at 10 μg/mL. Plates were read on a BMG CLARIOStar multimode plate reader from BMG Labtech (Ortenberg, Germany) with an excitation wavelength of 680 nm and emission wavelength of 615 nm. IC50 values of inhibitors were obtained by fitting the fluorescence intensity vs inhibitor concentrations in a sigmoidal dose-response curve (variable slope) with a non-linear regression using Prism 7 (La Jolla, Calif.).

Compound | IC50 [nM]
CN1CCC(Cn2cnc3c(-c4ccc(C#N)c(F)c4)c(-c4ccc5c(cnn5C)c4)ncc32)CC1 [Cpd. No. 1, 2-fluoro-4-(6-(1-methyl-1H-indazol-5-yl)-3-((1-methylpiperidin-4-yl)methyl)-3H-imidazo[4,5-c]pyridin-7-yl)benzonitrile] | 40.1
CN1CCC(Cn2cnc3c(-c4ccc(C#N)c(F)c4)c(-c4ccc5c(ccn5C)c4)ncc32)CC1 [compound 2, 2-fluoro-4-(6-(1-methyl-1H-indol-5-yl)-3-((1-methylpiperidin-4-yl)methyl)-3H-imidazo[4,5-c]pyridin-7-yl)benzonitrile] | 237
CCn1ncc2cc(-c3ncc4c(ncn4CC4CCN(C)CC4)c3-c3ccc(C#N)c(F)c3)ccc21 [compound 4, 4-(6-(1-ethyl-1H-indazol-5-yl)-3-((1-methylpiperidin-4-yl)methyl)-3H-imidazo[4,5-c]pyridin-7-yl)-2-fluorobenzonitrile] | 372
Cc1nc2cc(-c3ncc4c(ncn4CC4CCN(C)CC4)c3-c3ccc(C#N)c(F)c3)ccc2s1 [compound 5, 2-fluoro-4-(6-(2-methylbenzo[d]thiazol-5-yl)-3-((1-methylpiperidin-4-yl)methyl)-3H-imidazo[4,5-c]pyridin-7-yl)benzonitrile] | 928
CN1CCC(Cn2cnc3c(-c4ccc(C#N)c(F)c4)c(-c4ccc5c(c4)OCO5)ncc32)CC1 [compound 15, 4-(6-(benzo[d][1,3]dioxol-5-yl)-3-((1-methylpiperidin-4-yl)methyl)-3H-imidazo[4,5-c]pyridin-7-yl)-2-fluorobenzonitrile] | 27.8
CN1CC[C@H](Cn2cnc3c(-c4ccc(C#N)c(F)c4)c(-c4ccc5c(cnn5C)c4)ncc32)C1 [compound 16, (S)-2-fluoro-4-(6-(1-methyl-1H-indazol-5-yl)-3-((1-methylpyrrolidin-3-yl)methyl)-3H-imidazo[4,5-c]pyridin-7-yl)benzonitrile] | 28
Cn1ncc2cc(-c3ncc4c(ncn4CC4CCNCC4)c3-c3ccc(C#N)cc3)ccc21 [compound 20, 4-(6-(1-methyl-1H-indazol-5-yl)-3-(piperidin-4-ylmethyl)-3H-imidazo[4,5-c]pyridin-7-yl)benzonitrile] | 13.7
Cn1ncc2cc(-c3ncc4c(ncn4CC4CCCNCC4)c3-c3ccc(C#N)c(F)c3)ccc21 (stereo not shown) [compound 21, 4-(3-(azepan-4-ylmethyl)-6-(1-methyl-1H-indazol-5-yl)-3H-imidazo[4,5-c]pyridin-7-yl)-2-fluorobenzonitrile] | 17.3
Cn1ncc2cc(-c3ncc4c(ncn4CC4CCCNCC4)c3-c3ccc(C#N)cc3)ccc21 (stereo not shown) [compound 22, 4-(3-(azepan-4-ylmethyl)-6-(1-methyl-1H-indazol-5-yl)-3H-imidazo[4,5-c]pyridin-7-yl)benzonitrile] | 16.2
CN1CCOc2cc(-c3ncc4c(ncn4CC4CCCNCC4)c3-c3ccc(C#N)c(F)c3)ccc21 (stereo not shown) [compound 23, 4-(3-(azepan-4-ylmethyl)-6-(4-methyl-3,4-dihydro-2H-benzo[b][1,4]oxazin-7-yl)-3H-imidazo[4,5-c]pyridin-7-yl)-2-fluorobenzonitrile] | 13
CN1CCOc2cc(-c3ncc4c(ncn4CC4CCCNCC4)c3-c3ccc(C#N)cc3)ccc21 (stereo not shown) [compound 24, 4-(3-(azepan-4-ylmethyl)-6-(4-methyl-3,4-dihydro-2H-benzo[b][1,4]oxazin-7-yl)-3H-imidazo[4,5-c]pyridin-7-yl)benzonitrile] | 11
CN1CCOc2cc(-c3ncc4c(ncn4CC4CCNCC4)c3-c3ccc(C#N)c(F)c3)ccc21 [compound 25, 2-fluoro-4-(6-(4-methyl-3,4-dihydro-2H-benzo[b][1,4]oxazin-7-yl)-3-(piperidin-4-ylmethyl)-3H-imidazo[4,5-c]pyridin-7-yl)benzonitrile] | 8.01

The next lines start with the values.

IC50 [nM] | Compound
11.8 | Cn1ncc2cc(-c3ncc4c(ncn4CC4CCNCC4)c3-c3ccc(C#N)c(F)c3)ccc21 [Cpd. No. 19, 2-fluoro-4-(6-(1-methyl-1H-indazol-5-yl)-3-(piperidin-4-ylmethyl)-3H-imidazo[4,5-c]pyridin-7-yl)benzonitrile]
220 | CN1CCC(Cn2cnc3c(-c4ccc(C#N)c(F)c4)c(-c4ccc5c(c4)CC(=O)N5C)ncc32)CC1 [compound 3, 2-fluoro-4-(6-(1-methyl-2-oxoindolin-5-yl)-3-((1-methylpiperidin-4-yl)methyl)-3H-imidazo[4,5-c]pyridin-7-yl)benzonitrile]
66.3 | CN1CCC(Cn2cnc3c(-c4ccc(C#N)cc4)c(-c4ccc5c(cnn5C)c4)ncc32)CC1 [compound 6, 4-(6-(1-methyl-1H-indazol-5-yl)-3-((1-methylpiperidin-4-yl)methyl)-3H-imidazo[4,5-c]pyridin-7-yl)benzonitrile]
68 | CN1CCC(Cn2cnc3c(-c4ccc(C#N)cc4)c(-c4ccc5c(ccn5C)c4)ncc32)CC1 [compound 7, 4-(6-(1-methyl-1H-indol-5-yl)-3-((1-methylpiperidin-4-yl)methyl)-3H-imidazo[4,5-c]pyridin-7-yl)benzonitrile]
16.2 | CN1CCC(Cn2cnc3c(-c4ccc(C#N)c(F)c4)c(-c4ccc5c(c4)OCCN5C)ncc32)CC1 [compound 8, 2-fluoro-4-(6-(4-methyl-3,4-dihydro-2H-benzo[b][1,4]oxazin-7-yl)-3-((1-methylpiperidin-4-yl)methyl)-3H-imidazo[4,5-c]pyridin-7-yl)benzonitrile]
> 1000 | CN1CCC(Cn2cnc3c(-c4ccc(C#N)cc4)c(-c4ccc(C#N)cc4)ncc32)CC1 [compound 9, 4,4′-(3-((1-methylpiperidin-4-yl)methyl)-3H-imidazo[4,5-c]pyridine-6,7-diyl)dibenzonitrile]
53.1 | CN1CCC(Cn2cnc3c(-c4ccc(C#N)cc4)c(-c4ccc5c(c4)OCCN5C)ncc32)CC1 [compound 10, 4-(6-(4-methyl-3,4-dihydro-2H-benzo[b][1,4]oxazin-7-yl)-3-((1-methylpiperidin-4-yl)methyl)-3H-imidazo[4,5-c]pyridin-7-yl)benzonitrile]
116 | CCn1ncc2cc(-c3ncc4c(ncn4CC4CCN(C)CC4)c3-c3ccc(C#N)cc3)ccc21 [compound 11, 4-(6-(1-ethyl-1H-indazol-5-yl)-3-((1-methylpiperidin-4-yl)methyl)-3H-imidazo[4,5-c]pyridin-7-yl)benzonitrile]
97.6 | CN1CCC(Cn2cnc3c(-c4ccc(C#N)c(F)c4)c(-c4ccc5nn(C)cc5c4)ncc32)CC1 [compound 12, 2-fluoro-4-(6-(2-methyl-2H-indazol-5-yl)-3-((1-methylpiperidin-4-yl)methyl)-3H-imidazo[4,5-c]pyridin-7-yl)benzonitrile]
115 | CN1CCC(Cn2cnc3c(-c4ccc(C#N)cc4)c(-c4ccc5nn(C)cc5c4)ncc32)CC1 [compound 13, 4-(6-(2-methyl-2H-indazol-5-yl)-3-((1-methylpiperidin-4-yl)methyl)-3H-imidazo[4,5-c]pyridin-7-yl)benzonitrile]
15.7 | CN1CCC(Cn2cnc3c(-c4ccc(C#N)cc4)c(-c4ccc5c(c4)OCO5)ncc32)CC1 [compound 14, 4-(6-(benzo[d][1,3]dioxol-5-yl)-3-((1-methylpiperidin-4-yl)methyl)-3H-imidazo[4,5-c]pyridin-7-yl)benzonitrile]
12.1 | CN1CCOc2cc(-c3ncc4c(ncn4C[C@H]4CCNC4)c3-c3ccc(C#N)c(F)c3)ccc21 [compound 17, (S)-2-fluoro-4-(6-(4-methyl-3,4-dihydro-2H-benzo[b][1,4]oxazin-7-yl)-3-(pyrrolidin-3-ylmethyl)-3H-imidazo[4,5-c]pyridin-7-yl)benzonitrile]
12 | CN1CC[C@H](Cn2cnc3c(-c4ccc(C#N)c(F)c4)c(-c4ccc5c(c4)OCCN5C)ncc32)C1 [compound 18, (S)-2-fluoro-4-(6-(4-methyl-3,4-dihydro-2H-benzo[b][1,4]oxazin-7-yl)-3-((1-methylpyrrolidin-3-yl)methyl)-3H-imidazo[4,5-c]pyridin-7-yl)benzonitrile]
14.7 | CN1CCOc2cc(-c3ncc4c(ncn4CC4CCNCC4)c3-c3ccc(C#N)cc3)ccc21 [compound 26, 4-(6-(4-methyl-3,4-dihydro-2H-benzo[b][1,4]oxazin-7-yl)-3-(piperidin-4-ylmethyl)-3H-imidazo[4,5-c]pyridin-7-yl)benzonitrile]
53.3 | Cn1ccc2cc(-c3ncc4c(ncn4C[C@H]4CCNC4)c3-c3ccc(C#N)c(F)c3)cnc21 [compound 27, (S)-2-fluoro-4-(6-(1-methyl-1H-pyrrolo[2,3-b]pyridin-5-yl)-3-(pyrrolidin-3-ylmethyl)-3H-imidazo[4,5-c]pyridin-7-yl)benzonitrile]
9.57 | N#Cc1ccc(-c2c(-c3ccc4c(c3)OCCO4)ncc3c2ncn3C[C@H]2CCNC2)cc1F [compound 28, (S)-4-(6-(2,3-dihydrobenzo[b][1,4]dioxin-6-yl)-3-(pyrrolidin-3-ylmethyl)-3H-imidazo[4,5-c]pyridin-7-yl)-2-fluorobenzonitrile]
